Where two headings read alike, the source gives them in different places.
Assays:
[1] = system: MDA231-LM2 lung metastatic breast cancer cells; assay: trans-well cell migration assay, 3 μm pore Boyden chamber; format: cell-based; details: 24 h pre-treatment, 5 h migration
Experimental: MDA231-LM2 lung metastatic breast cancer cells were pre-treated with the indicated concentrations of ME or Carboxymethyl-ME for 24 hours. Following the pre-treatment, migration was determined using a Boyden chamber with 3 μm pore size filters. Cells were allowed to migrate for 5 hours through the chamber (in the presence of ME or Carboxymethyl-ME). Cells that traversed the porous membranes were analyzed and scored under a fluorescence microscope. […] The results are expressed as transmigrated cells per optical field. Data are averages of triplicates ±S.D. (See FIG. 6)

[2] = mouse pharmacokinetics, plasma HPLC-MS/MS; format: in vivo, mice (B6D2F1); details: for AUC(0-t): 20 mg/kg in 2% GDM-12, read-out: AUC0-24 hr; for half-life: 20 mg/kg in 2% GDM-12, read-out: Half-life (t1/2) (converted)
Experimental: Groups of mix gender mice (B6D2F1) were used. Pharmacokinetics (PK) were performed on heparinized mouse plasma samples obtained typically at 0 hr, 0.17 hr, 0.5 hr, 0.75 hr, 1 hr, 2 hr, 4 hr, 8 hr, 16 hr and 24 hr after the bolus intravenous or intraperitoneal injections for CME. Samples were analyzed using a HPLC-MS/MS method. To determine the level of CME, the drug was first isolated from plasma with a sample pre-treatment. Acetonitrile were used to remove proteins in samples. An isocratic HPLC-MS/MS method was then used to separate the drugs from any potential interference. Compound levels were measured by MS detection with a multiple reaction monitoring (MRM) mode. PK data was analyzed using the WinNonlin program (ver. 5.3, Pharsight) compartmental model of analysis.
The hashed line is (A: ip) and the solid line is (B:iv) The drug was administered intravenously or intraperitoneally and the dosing strength was 20 mg/kg.

MDA231BrM2a cells = assay: cancer cell extravasation through the blood-brain barrier after intracardiac injection; format: in vivo, mice; details: 20 mg/kg intraperitoneally at days 0, 3 and 5; sacrificed 7 days after inoculation
Experimental: MDA231BrM2a is a human breast cancer cell line that is metastatic to the brain (Bos et al 2009). These cells stably express a triple fusion protein (thymidinekinase-GFP-luciferase) that allows detection by bioluminesce, and by immunofluorescence with anti-GFP antibodies. Cells (5×10^5 cells) were inoculated into the bloodstream of immunodeficient mice by intracardiac injection. Carboxymethyl-Migraether (cME) was administered (20 mg/kg, intraperitoneally) at days 0, 3 and 5 after injection. Mice were sacrificed 7 days after inoculation. Brains from these mice were serially sectioned (80 μm sections). Anti-GFP immunofluorescence was performed and the number of GFP(+) cells (events) per brain quantified (FIG. 1). The results establish that extravasation of these cancer cells through the blood-brain barrier (BBB) occurs during the first 7 days after inoculation. Therefore, in the experiment of FIG. 1, cME targets cells during the extravasation step.

AC3-TGL cells = assay: human primary SCLC xenograft model, Example 15; format: in vivo
Source text: This Example studied whether the ME analog affects tumor metastasis in a human small cell lung cancer (SCLC) primary xenograft model. These cells in primary and subsequent in vivo passages in NOD-SCID mice formed liver metastases. The tumor cells were stably transduced with a triple-fusion protein reporter construct (AC3-TGL), and were transplanted by subcutaneous injection with matrigel into NOD/SCID IL2R gamma null (NSG) mice. Started 1 day prior the inoculation of tumor cells, ME treatment was initiated by intraperitoneal injection at 40 mg/kg (ME40) or 200 mg/kg (ME200) three times a week in groups of 5 mice. Control mice were treated with DMSO vehicle. Tumor burden and metastatic spread were monitored every 5 days by serial non-invasive bioluminescent imaging. […] At the endpoint, the potential metastatic sites (liver, lung, spleen, heart and kidney, gastrointestinal tract) were surgically resected and the luciferase activity quantified by ex-vivo bioluminescence imaging (FIG. 5b).
For the results depicted in FIGS. 5a-c, AC3-TGL cells were transplanted by subcutaneous ventral injection into NSG mice. Xenografted mice were treated with indicated dosages of ME every 3 days started from day −1 after tumor inoculation: 40 mg/kg (ME40, n=5), 200 mg/kg (ME200, n=5)) and DMSO vehicle (Control, n=5). At day 45, the mice were sacrificed. Three mice in the ME200 group died before the end of treatment, at day 23, 30 and 34. (A) Tumor growth. Every 5 days, the tumor burden was monitored by in vivo Bioluminescence Imaging (BI) and data is expressed as photon flux (flux in photon/sec)+/−SEM in log scale. (B, C) Tumor metastasis at endpoint. At day 45, mice were analyzed for metastasis by ex vivo BI quantifying luciferase activity in the excised lungs (Lu), liver (Li), heart (H), kidneys (K) and the spleen (S). Measurements for each mouse are presented on the panel B (circles), with the average per group (short line) and expressed as photon flux (flux in photon/sec) in log scale. P-values were obtained using two-tailed Mann-Whitney U-test. Pictures of bioluminescence signal measured on the organs from 1 mouse of each group are presented on the panel C. Each picture is presented with the same settings (4 min exposure; photon signal; color scale from 5.E6 (min) to 1.E8 (max)).
Xenograft Model for Example 15: A human primary SCLC xenograft model was developed in 10-14 weeks old male non-obese diabetic severe combined immunodeficient (NOD/SCID) Interleukin-2 gamma Chain Receptor Null Mice (NSG). Primary tumor samples were obtained after patient informed consent. AC3-TGL primary cells growing as clumps were processed into a single-cell suspension by Trypsin/Collagenase IV (Invitrogen) sequential treatment and filtrated as described above. Xenografts were performed by subcutaneous ventral injection of 10^3 AC3-TGL cells in serum-free medium mixed with Matrigel (Becton Dickinson). One day prior to the tumor cell injection, mice were pretreated with Migrastatin Ether (ME) compounds at a dose of either 40 mg/kg or 200 mg/kg per mouse or with DMSO vehicle control (n≧5 mice per group). […] During this time, the tumor burden and metastatic spread were monitored by bioluminescence imaging (BLI) every 5 days. At day 45 (endpoint), the mice were killed and the metastatic spread of tumor cells to the lungs, liver, heart, kidneys, spleen and GI tract was assessed by ex-vivo BLI on the removed organs.

[3] = both sexes, B6D2F1, plasma, ip, 20 mg/kg in 2% GDM-12
[4] = both sexes, B6D2F1, plasma, iv, 20 mg/kg in 2% GDM-12

Structure (SMILES) | potency relative to ME at inhibiting migration [1] | AUC(0-inf) [2, 3] [ng·h/mL] | Cmax [2, 3] [ng/mL] | bioavailability [2, 3] [%] | AUC(0-t) ([2]; both sexes, B6D2F1, plasma, ip) [ng·h/mL] | half-life ([2]; both sexes, B6D2F1, plasma, ip) [h] | AUC(0-inf) [2, 4] [ng·h/mL] | Cmax [2, 4] [ng/mL] | clearance [2, 4] [mL/min/kg] | AUC(0-t) ([2]; both sexes, B6D2F1, plasma, iv) [ng·h/mL] | half-life ([2]; both sexes, B6D2F1, plasma, iv) [h] | CL ([2]; ip, 20 mg/kg in 2% GDM-12) [mL/min/kg] | reduction in the number of events (GFP(+) cells) per brain (MDA231BrM2a cells) | decrease of overall metastasis (AC3-TGL cells; 40 mg/kg i.p. every 3 days, day 45, vs control) [%] | mice died before the endpoint (AC3-TGL cells; 200 mg/kg group of 5) [mice] | metastasis inhibition (AC3-TGL cells; 200 mg/kg i.p. every 3 days, day 45, 2 surviving mice) [%] | side effects in surviving mice (AC3-TGL cells; 200 mg/kg, 2 surviving mice, after 45 days of treatment) | tumor growth kinetics at the primary site of injection (AC3-TGL cells; 40 or 200 mg/kg i.p.)
CO[C@H]1/C=C/CCCCCOC/C(C)=C\[C@@H](C)[C@@H]1OCC(=O)O [CME, Carboxymethyl migraether] | approximately 20 fold | 27900 | 369 | 77.8 | 27800 | 2.4 | 36000 | 1540 | 9.25 | 35700 | 2.9 | 11.96 | two-fold reduction |  |  |  |  | 
CO[C@H]1/C=C/CCCCCOC/C(C)=C\[C@@H](C)[C@@H]1O [ME, migrastatin ether] |  |  |  |  |  |  |  |  |  |  |  |  |  | 93 | 3 | 99 | no body-weight loss, lethargy or other obvious side effects | did not significantly interfere

Source: US9303009B2, “Migrastatins and uses thereof” (Sloan-Kettering Institute for Cancer Research, priority 2011, dated 2016)
